In the supplement of paper PMC4314810:
± gives the standard deviation of the averaged measurements.

Test system: MCF7
Test: HRG-induced Akt activation (dPAkt = log2 pAkt/Akt HRG-stimulated minus log2 pAkt/Akt basal) (log2 ratio difference); higher = stronger HRG-induced Akt(T308) phosphorylation
Conditions: miRNA mimic concentration 10 nM; time after transfection 72 h; heregulin 10 ng/ml; stimulation time 1 h
Method in brief: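 Akt activation induced by heregulin was calculated as the difference between stimulated and unstimulated log ratios of phospho-Akt to total Akt, then averaged across replicates. The ratio was taken as log2(pAkt/Akt) from In-Cell Western readings of phospho-Akt(T308) and total Akt on an Odyssey, corrected for column-wise fixation decay. Before reading, MCF7 cells ([…], 96-well plates) transfected with 879 miRNA mimics at 10 nM final via Lipofectamine RNAiMax were, after 72 h, given 10 ng/ml heregulin-beta1 for 1 h or no stimulus, then fixed with 4% PFA. Two biological replicates were run.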

CAGUGCAAUGAUGAAAGGGCAU and ACCAUCGACCGUUGAUUGUACC are within 0.2 log units of each other in “HRG-induced Akt activation (log2)” value: 1.31 ± 0.024 for the first, 1.35 ± 0.22 for the second.

GUGCAUUGCUGUUGCAUUGC and GUGAGUCUCUAAGAAAAGAGGA are within error of each other in “HRG-induced Akt activation (log2)” value: 1.178 ± 0.00052 for the first, 1.56 ± 0.38 for the second.

Compared with AAAAACUGAGACUACUUUUGCA, CAUCUUACCGGACAGUGCUGGA is higher in “HRG-induced Akt activation (log2)” value: 1.33 ± 0.15 for the first, 1.841 ± 0.015 for the second.

Going from GGGGAGCUGUGGAAGCAGUA to UGUAAACAUCCUACACUCUCAGC, the “HRG-induced Akt activation (log2)” value falls from 1.73 ± 0.21 to 0.867 ± 0.099.

AACACACCUGGUUAACCUCUUU and CCAAAACUGCAGUUACUUUUGC are within 0.2 log units of each other in “HRG-induced Akt activation (log2)” value: 1.23 ± 0.54 for the first, 1.39 ± 0.13 for the second.

First: AUGGUUCCGUCAAGCACCAUGG
Second: UCUGGCUCCGUGUCUUCACUCCC
The “HRG-induced Akt activation (log2)” value of the first is higher: 1.87 ± 0.22 for the first, 0.873 ± 0.15 for the second.

CUGACUGUUGCCGUCCUCCAG and AUCAUAGAGGAAAAUCCAUGUU are within 0.2 log units of each other in “HRG-induced Akt activation (log2)” value: 1.53 ± 0.13 for the first, 1.64 ± 1 for the second.

CUCCUGACUCCAGGUCCUGUGU and GAAAUCAAGCGUGGGUGAGACC are within error of each other in “HRG-induced Akt activation (log2)” value: 1.43 ± 0.33 for the first, 1.77 ± 0.15 for the second.

Going from UCAGGCUCAGUCCCCUCCCGAU to UCGUGGCCUGGUCUCCAUUAU, the “HRG-induced Akt activation (log2)” value falls from 1.36 ± 0.046 to 1.03 ± 0.11.

UUCACAGGGAGGUGUCAU and ACUGUAGUAUGGGCACUUCCAG are within error of each other in “HRG-induced Akt activation (log2)” value: 1.82 ± 0.08 for the first, 1.46 ± 0.29 for the second.

CUAUACGACCUGCUGCCUUUCU and CCCAGAUAAUGGCACUCUCAA are within 0.2 log units of each other in “HRG-induced Akt activation (log2)” value: 1.47 ± 0.14 for the first, 1.55 ± 0.12 for the second.

AAAGCGCUUCCCUUCAGAGUG and AAGGAGCUUACAAUCUAGCUGGG are within error of each other in “HRG-induced Akt activation (log2)” value: 1.53 ± 0.33 for the first, 1.87 ± 0.21 for the second.

First: CUCAGUAGCCAGUGUAGAUCCU
Second: AAAAGCUGGGUUGAGAGGGU
The “HRG-induced Akt activation (log2)” value of the first is lower: 1.53 ± 0.16 for the first, 1.89 ± 0.17 for the second.

UGCAACGAACCUGAGCCACUGA and ACUGUUGCUAAUAUGCAACUCU are within error of each other in “HRG-induced Akt activation (log2)” value: 1.49 ± 0.14 for the first, 0.931 ± 0.72 for the second.

AAGGAGCUCACAGUCUAUUGAG and CUUUCAGUCGGAUGUUUGCAGC are within error of each other in “HRG-induced Akt activation (log2)” value: 1.97 ± 0.2 for the first, 1.75 ± 0.2 for the second.

Compared with CAAAUUCGUAUCUAGGGGAAUA, UGAGCGCCUCGACGACAGAGCCG is lower in “HRG-induced Akt activation (log2)” value: 1.57 ± 0.036 for the first, 1.29 ± 0.043 for the second.

Compared with AACCAUCGACCGUUGAGUGGAC, CAAAACGUGAGGCGCUGCUAU is higher in “HRG-induced Akt activation (log2)” value: 0.92 ± 0.14 for the first, 1.27 ± 0.087 for the second.

Going from CAGUGCAAUGUUAAAAGGGCAU to UGGAGUGUGACAAUGGUGUUUG, the “HRG-induced Akt activation (log2)” value rises from 0.895 ± 0.16 to 2.527 ± 0.012.

UAUGCAUUGUAUUUUUAGGUCC and AGGUUGGGAUCGGUUGCAAUGCU are within error of each other in “HRG-induced Akt activation (log2)” value: 1.1 ± 0.81 for the first, 1.59 ± 0.021 for the second.

UCAUAUUGCUUCUUUCU and UGCCUACUGAGCUGAUAUCAGU are within 0.2 log units of each other in “HRG-induced Akt activation (log2)” value: 1.79 ± 0.17 for the first, 1.62 ± 0.029 for the second.

Compared with AGUUAAUGAAUCCUGGAAAGU, AGAGUUGAGUCUGGACGUCCCG is higher in “HRG-induced Akt activation (log2)” value: 1.46 ± 0.25 for the first, 1.98 ± 0.027 for the second.

First: AAGUGUGCAGGGCACUGGU
Second: AAAGUGCUUCCUUUUAGAGGG
The “HRG-induced Akt activation (log2)” value of the first is higher: 2.33 ± 0.23 for the first, 0.928 ± 0.12 for the second.

GGAUUCCUGGAAAUACUGUUCU and UUCACAGUGGCUAAGUUCUGC are within error of each other in “HRG-induced Akt activation (log2)” value: 1.2 ± 0.74 for the first, 1.73 ± 0.061 for the second.

UUAUGGUUUGCCUGGGACUGAG and UUGGGACAUACUUAUGCUAAA are within error of each other in “HRG-induced Akt activation (log2)” value: 1.74 ± 0.28 for the first, 1.28 ± 0.2 for the second.

AGGGACUUUCAGGGGCAGCUGU and UCUGGGCAACAAAGUGAGACCU are within error of each other in “HRG-induced Akt activation (log2)” value: 1.48 ± 0.18 for the first, 0.753 ± 0.69 for the second.

UAGAGUUACACCCUGGGAGUUA and GUGUUGAAACAAUCUCUACUG are within 0.2 log units of each other in “HRG-induced Akt activation (log2)” value: 1.66 ± 0.19 for the first, 1.53 ± 0.25 for the second.

With UUAAUGCUAAUCGUGAUAGGGGU the “HRG-induced Akt activation (log2)” value was 0.789 ± 0.062.
